Measured values published in publication PMC8480901 (PLoS ONE, 2021).
Values joined by “and” are separate entries in the source; they are usually repeats but may differ in a detail not shown here. Identical values can stand only once. Like-named read-outs stand apart in the source and are kept apart here.

Experiments:
human neutrophils = experiment: Cytotoxicity in human neutrophils (CellTiter Glo); format: cell-based; details: ≤100 μM, cytotoxic if reduction from vehicle ≥20%
Experimental: (§1) For the chemotaxis and cytotoxicity evaluations, average relative light unit values were calculated from all untreated vehicle samples and, for each sample, percentage of vehicle value was calculated. The tested compound was considered cytotoxic if reduction from untreated vehicle was ≥20%.

[1] = system: IL-8–activated human neutrophils; experiment: Chemotaxis of IL-8–activated human neutrophils (transwell, CellTiter Glo); format: cell-based; details: for Neutrophilic chemotaxis, RLU, Mean / Neutrophilic chemotaxis: % reduction / Neutrophilic chemotaxis, RLU, single replicates: IL-8; for Neutrophilic chemotaxis, RLU, single replicates: listed as Azi
Description: Buffy coat (blood sample fraction comprising white blood cells and platelets) from whole blood was obtained from a healthy adult volunteer at the Croatian Institute of Transfusion Medicine (CITM; Zagreb, Croatia). The CITM ethics committee approved the blood collection process, and the volunteer provided written informed consent prior to blood collection. Neutrophils were isolated from the buffy coat, an aliquot of which was used for cell counting via hematologic analyzer (X500i; Sysmex). […] The diluted buffy coat was drawn into sterile 50-mL syringes and incubated for 30 minutes at RT. Following incubation, the upper layer of leukocyte-rich plasma (35 mL) was decanted into a new sterile 50-mL conical centrifuge tube, carefully layered onto 15 mL of Lymphoprep (Axis-Shield Diagnostics, Ltd., Dundee, UK) and centrifuged at 400×g (brake turned off) for 35 minutes at RT. The supernatant and mononuclear ring were discarded, and the pellet was resuspended in 10 mL of cold sterile MilliQ water. […] Resuspended neutrophils were counted via Sysmex X500i hematologic analyzer.
All test compounds were reconstituted in DMSO (Sigma-Aldrich Chemie GmbH) to 100-mM stock concentrations, taking into consideration and correcting for salt and purity. A 30-mM stock solution of reference compound Sch527123 (MedChemExpress, Monmouth Junction, NJ, USA) was diluted to 10 mM with DMSO.
DMSO was used as vehicle. […] The reference compound was tested at concentrations of 0.003, 0.01, 0.03, 0.1, 0.3, 1, 3, and 10 μM. All compounds were tested in triplicate, and the final DMSO concentration was 0.1% per well.
Test and reference compound working solutions were then added (20 μL/well) for a 10-fold dilution to final testing concentrations. Compounds and cells were mixed by gentle pipetting, and the plate was pre-incubated for 30 minutes at RT with gentle mixing by pipetting.
Negative control wells received 180 μL of migration medium alone. To all wells, 20 μL of compound working solutions or DMSO vehicle was added. Once pre-incubation of cells with compounds was complete, the transwell inserts were carefully placed on the receiver plate, with caution to avoid air bubble formation, which could prevent cell migration. To the upper wells, 75 μL of cell suspension (375,000 cells/well) was added, taking care not to tear the membrane with pipette tips.
After incubation, the number of cells that migrated to the lower wells was quantified by removing the Transwell insert and adding 200 μL of CellTiter Glo reagent (CellTiter-Glo Luminescent Cell Viability Assay, Promega, Madison, WI, USA) to each lower well to quantify the amount of adenosine triphosphate (ATP) present, signaling the presence of metabolically active cells. The plate was incubated for 10 minutes in the dark at RT, followed by transferring 150 μL of solution into wells of a white 96-well plate (Lumitrac 200; Greiner Bio-One International GmbH, Kremsmunster, Austria).
as §1

J774.2 mouse macrophages = experiment: Cytotoxicity in J774.2 mouse macrophages (adenylate kinase release, ToxiLight); format: cell-based; details: J774.2 cells; 100 μM
Experimental: The effect of t est compounds on cell viabilit y of J 774.2 macrophages and human PBMCs […]
was determined b y comp aring th e aden yl ate kinas e signal obtain ed in the p resence of diff er ent concentrations of compounds with those obtained in DMSO (vehicle) control. Signals were […]
divided,and the results were ex pressed as fold-change versus v ehicle con trol .

[2] = Pharmacokinetics in plasma and epithelial lining fluid of mice after a single SC dose; format: in vivo, BALB/c mice; details: mice; for AUC(0-t): read-out: AUC0-24h, mean±SEM; for Cmax: read-out: Cmax, mean±SEM
Experimental: Pharmacokinetic parameters were evaluated as previously described. […] Plasma samples were analyzed by liquid chromatography with […] mass spectrometry (Q Exactive Plus; Thermo Fisher Scientific).
Area under the curve (AUC) values were determined using the linear trapezoidal method.

[3] = cited from earlier work
[4] = female, BALB/c, mouse, epithelial lining fluid (ELF), ELF, single 35 mg/kg SC
[5] = female, BALB/c, mouse, plasma, single 35 mg/kg SC

With `CC[C@H]1OC(=O)[C@H](C)[C@@H](O[C@H]2C[C@@](C)(OC)[C@@H](O)[C@H](C)O2)[C@H](C)[C@@H](O[C@@H]2O[C@H](C)C[C@H](N(C)C)[C@H]2O)[C@](C)(O)C[C@@H](C)CN(C)[C@H](C)[C@@H](O)[C@]1(C)O` [Azithromycin] the cytotoxic effects (human neutrophils) was “no cytotoxic effects”, the “IL-8–induced chemotaxis of human neutrophils” value ([1]; 0.03 to 30 μM) was “no effect” and the “Neutrophilic chemotaxis, RLU, Mean” value ([1]; 0.03 µM) was 121773 RLU. For the same compound, the “Neutrophilic chemotaxis: % reduction” value ([1]; 0.03 µM) was 10%, the “Neutrophilic chemotaxis, RLU, single replicates” value ([1]; 0.03 µM) was 113920 RLU and 126240 RLU and the “Neutrophilic chemotaxis, RLU, Mean” value ([1]; 0.1 µM) was 122140 RLU. The “Neutrophilic chemotaxis: % reduction” value ([1]; 0.1 µM) was 9%, the “Neutrophilic chemotaxis, RLU, single replicates” value ([1]; 0.1 µM) was 121960 RLU and 122320 RLU and the “Neutrophilic chemotaxis, RLU, Mean” value ([1]; 0.3 µM) was 131533 RLU. For the same compound, the “Neutrophilic chemotaxis, RLU, single replicates” value ([1]; 0.3 µM) was 126760 RLU and 132240 RLU and 135600 RLU, the “Neutrophilic chemotaxis, RLU, Mean” value ([1]; 1 µM) was 117320 RLU and the “Neutrophilic chemotaxis: % reduction” value ([1]; 1 µM) was 13%. The “Neutrophilic chemotaxis, RLU, single replicates” value ([1]; 1 µM) was 120320 RLU and 118720 RLU and 112920 RLU, the “Neutrophilic chemotaxis, RLU, Mean” value ([1]; 3 µM) was 121787 RLU and the “Neutrophilic chemotaxis: % reduction” value ([1]; 3 µM) was 9.51%. The “Neutrophilic chemotaxis, RLU, single replicates” value ([1]; 3 µM) was 127280 RLU and 119280 RLU and 118800 RLU, the “Neutrophilic chemotaxis, RLU, Mean” value ([1]; 10 µM) was 120227 RLU and the “Neutrophilic chemotaxis: % reduction” value ([1]; 10 µM) was 11%. For the same compound, the “Neutrophilic chemotaxis, RLU, single replicates” value ([1]; 10 µM) was 119960 RLU and 123240 RLU and 117480 RLU, the “Neutrophilic chemotaxis, RLU, Mean” value ([1]; 30 µM) was 136440 RLU and the “Neutrophilic chemotaxis: % reduction” value ([1]; 30 µM) was -3%. The “Neutrophilic chemotaxis, RLU, single replicates” value ([1]; 30 µM) was 143280 RLU and 148320 RLU and 117720 RLU, the “Neutrophilic chemotaxis, RLU, Mean” value ([1]; 100 µM) was 142040 RLU and the “Neutrophilic chemotaxis: % reduction” value ([1]; 100 µM) was -8%. For the same compound, the “Neutrophilic chemotaxis, RLU, single replicates” value ([1]; 100 µM) was 140160 RLU and 151960 RLU and 134000 RLU, the cell viability (J774.2 mouse macrophages) was “reduced” and the “AUC0-24h/Dose, mean” value ([2]; ELF, single 35 mg/kg SC) was 0.76 (μg∙h/mL)/(mg/kg). For the same compound, the Kp ([2]; female, BALB/c, mouse, epithelial lining fluid (ELF) / plasma, single 35 mg/kg SC, read-out: AUC ratio for ELF to plasma) was roughly 2, the Tmax [2, 4] was 15 min and the AUC(0-t) [2, 4] was 26700 ± 5780 ng·h/mL. It also gave a Cmax [2, 4] of 2350 ± 1450 ng/mL, a Tmax [2, 5] of 4.8 min and an AUC(0-t) [2, 5] of 11600 ± 1370 ng·h/mL. The Cmax [2, 5] was 2330 ± 830 ng/mL, the “distribution from plasma to ELF (penetration into the lung compartment)” value ([2]; single SC dose 35 mg/kg) was “rapid penetration” and the “AUC0-24h/Dose, mean” value ([2]; plasma, single 35 mg/kg SC) was 0.33 (μg∙h/mL)/(mg/kg). For the same compound, the “increase in AUC, first to fifth daily dose” value ([3]; 500 mg IV daily) was 61%, the “increase in maximum observed plasma concentration, first to fifth daily dose” value ([3]; 500 mg IV daily) was 8% and the “plasma exposure (AUC)” value ([3]; 500-mg IV 3-hour infusion, healthy volunteers) was 5000 ng·h/mL.
